# From patent US7101849B1 (The University of Queensland, priority 1998, dated 2006)
# Molecular target: N-type calcium channel (Rattus norvegicus, UniProt Q02294)
# Format: binding
# N-type calcium channel, sequence (Q02294 whole entry, looked up): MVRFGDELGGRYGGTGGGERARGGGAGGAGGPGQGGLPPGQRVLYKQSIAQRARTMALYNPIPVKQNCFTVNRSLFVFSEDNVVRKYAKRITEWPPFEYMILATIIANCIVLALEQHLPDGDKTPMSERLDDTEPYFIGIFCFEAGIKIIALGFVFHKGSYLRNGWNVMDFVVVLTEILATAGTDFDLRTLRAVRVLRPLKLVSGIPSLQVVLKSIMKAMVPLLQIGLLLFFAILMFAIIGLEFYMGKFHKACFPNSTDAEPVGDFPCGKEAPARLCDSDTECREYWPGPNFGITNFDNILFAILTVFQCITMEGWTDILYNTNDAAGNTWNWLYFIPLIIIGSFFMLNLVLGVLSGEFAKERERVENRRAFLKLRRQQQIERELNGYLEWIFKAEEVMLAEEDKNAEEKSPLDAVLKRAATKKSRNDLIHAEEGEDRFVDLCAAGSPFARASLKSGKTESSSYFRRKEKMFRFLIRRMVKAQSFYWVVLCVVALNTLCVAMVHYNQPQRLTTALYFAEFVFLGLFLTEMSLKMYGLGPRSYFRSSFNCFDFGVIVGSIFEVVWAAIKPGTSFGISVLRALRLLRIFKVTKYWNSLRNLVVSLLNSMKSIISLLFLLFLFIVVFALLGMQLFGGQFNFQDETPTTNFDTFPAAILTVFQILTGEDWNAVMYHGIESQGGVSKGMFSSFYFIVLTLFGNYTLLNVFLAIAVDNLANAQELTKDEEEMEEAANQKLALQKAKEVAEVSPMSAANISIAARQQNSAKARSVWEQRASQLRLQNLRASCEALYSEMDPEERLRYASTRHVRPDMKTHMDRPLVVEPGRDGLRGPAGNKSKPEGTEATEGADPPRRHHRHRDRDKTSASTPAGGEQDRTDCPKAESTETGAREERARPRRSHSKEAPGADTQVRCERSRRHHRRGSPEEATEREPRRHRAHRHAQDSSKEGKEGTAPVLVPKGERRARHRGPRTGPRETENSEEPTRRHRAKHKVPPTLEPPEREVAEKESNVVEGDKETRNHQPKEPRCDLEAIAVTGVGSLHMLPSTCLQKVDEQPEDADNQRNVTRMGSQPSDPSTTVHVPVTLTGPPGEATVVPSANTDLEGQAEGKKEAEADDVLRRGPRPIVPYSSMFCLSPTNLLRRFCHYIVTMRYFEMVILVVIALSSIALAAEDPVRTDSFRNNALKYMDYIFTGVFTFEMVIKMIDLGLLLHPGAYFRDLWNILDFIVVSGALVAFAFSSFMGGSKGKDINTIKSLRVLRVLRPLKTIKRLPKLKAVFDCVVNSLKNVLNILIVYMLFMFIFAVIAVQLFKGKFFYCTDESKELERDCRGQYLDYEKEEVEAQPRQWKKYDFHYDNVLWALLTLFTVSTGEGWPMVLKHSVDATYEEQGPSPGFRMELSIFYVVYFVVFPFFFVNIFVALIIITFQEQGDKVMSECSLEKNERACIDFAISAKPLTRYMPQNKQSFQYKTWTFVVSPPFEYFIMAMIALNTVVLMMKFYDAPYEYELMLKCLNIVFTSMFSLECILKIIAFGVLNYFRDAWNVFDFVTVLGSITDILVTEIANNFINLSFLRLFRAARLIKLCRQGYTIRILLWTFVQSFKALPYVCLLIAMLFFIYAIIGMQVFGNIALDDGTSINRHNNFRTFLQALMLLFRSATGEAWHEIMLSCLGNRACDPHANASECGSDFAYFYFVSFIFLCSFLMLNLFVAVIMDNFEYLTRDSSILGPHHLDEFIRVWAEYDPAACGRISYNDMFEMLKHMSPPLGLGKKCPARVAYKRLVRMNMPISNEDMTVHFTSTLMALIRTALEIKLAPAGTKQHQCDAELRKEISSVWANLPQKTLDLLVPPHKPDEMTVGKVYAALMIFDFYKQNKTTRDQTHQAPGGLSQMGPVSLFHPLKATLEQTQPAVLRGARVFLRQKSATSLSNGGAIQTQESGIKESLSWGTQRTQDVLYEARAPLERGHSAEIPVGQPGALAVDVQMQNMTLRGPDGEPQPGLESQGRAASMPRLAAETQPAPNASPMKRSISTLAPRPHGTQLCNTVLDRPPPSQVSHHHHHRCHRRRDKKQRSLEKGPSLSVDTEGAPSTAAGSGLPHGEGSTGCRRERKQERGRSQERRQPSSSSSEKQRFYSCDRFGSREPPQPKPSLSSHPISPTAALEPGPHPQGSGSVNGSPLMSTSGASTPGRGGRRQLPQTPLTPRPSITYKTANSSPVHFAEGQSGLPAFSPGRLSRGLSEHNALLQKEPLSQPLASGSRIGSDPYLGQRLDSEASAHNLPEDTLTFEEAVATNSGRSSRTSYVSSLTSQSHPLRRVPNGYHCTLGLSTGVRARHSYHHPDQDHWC
sequence,measurement,value
CKSKGAKCDRLMYDCCSGSCSGTVGRC [D^9R^10-CVID],potency for N-type calcium channel in receptor binding assays,high potency
same,selectivity for N-type calcium channel over P/Q-type calcium channel in receptor binding assays,high selectivity
